Common to all, as to assay type: cell-based, chicken
One test deals with AvBD9 mRNA expression. In words: RT-qPCR of AvBD9 mRNA expression in HTC macrophage cells. The conditions noted are these: for induction of AvBD9 gene expression / increase in AvBD9 expression, combination with mocetinostat: 24 h (FIG. 7, Panel D); for increase in AvBD9 expression, combination with mocetinostat: 5 μM compound in combination with 2.5 μM mocetinostat; for synergy in AvBD9 induction between HMTi and HDACi: with butyrate or mocetinostat, 24 h (FIG. 7, Panel C); for synergy with butyrate in AvBD9 mRNA expression: indicated concentrations in combination with 2 mM butyrate, 24 h (FIG. 4). As to the method: (§1) Culture and stimulation of macrophages. Two different chicken macrophage cell lines, HTC (24) and HD11 (25), were kindly provided by Dr. Narayan C. Rath and Dr. Hyun Lillehoj of USDA-ARS and maintained in RPMI 1640 containing 10% heat-inactivated FBS, 100 U/ml penicillin, and 100 μg/ml streptomycin and subcultured every 3-4 days. After overnight seeding at 1.5×10^6 cells/well in 6-well cell culture plates, cells were treated with different concentrations of each compound for 24 h or with the indicated concentration of each compound for various lengths of time for dose-response and time-course experiments, respectively. To study the synergy between HMTi/DNMTi and HDACi, different concentrations of an HMTi or DNMTi were added to the cells in the presence or absence of an HDACi for 24 h, followed by RNA isolation and HDP gene expression analysis as described below. HTC cells were also stimulated with butyrate, BIX01294, or their combination for 24 h, followed by 3-h stimulation with 10 ng/ml LPS and subsequent expression analysis.
(§2) Total RNA extraction and gene expression analysis. Total RNA was extracted using RNAzol (Molecular Biology Research Center, Cincinnati, OH) according to the manufacturer's protocol. Gene expression was performed using reverse transcription-quantitative PCR (RT-qPCR) as previously described (27-29). Reverse transcription was performed with 300 ng of total RNA and Maxima® First Strand cDNA Synthesis Kit (ThermoFisher Scientific, Pittsburgh, PA). The cDNA was then diluted 10-fold with RNase-free water prior to real-time PCR using QuantiTect SYBR® Green PCR Kit (Qiagen, Valencia, CA) in 10-μl reactions using primers specific for HDP, barrier function, and inflammatory cytokine genes as described (27, 29, 30). PCR was run in CFX Connect Real-Time PCR System (Bio-Rad, Hercules, CA) using the following program: 95° C. for 10 min, followed by 40 cycles of 94° C. for 15 sec, 55° C. for 20 sec, and 72° C. for 30 sec. The specificity of PCR reactions was confirmed by the melting curve analysis. The glyceraldehyde-3-phosphate dehydrogenase (GAPDH) gene was used as the reference for data normalization. The fold changes in gene expression in the cells treated with individual compounds or in combinations were calculated relative to the cells treated with an equal volume of RPMI 1640 or DMSO using the ΔΔCt method (31).
A general note: Real-time PCR tracks product formation cycle by cycle.

A further test has as its system AvBD9 gene promoter. In words: HTC/AvBD9-luc luciferase reporter assay. The conditions noted are these: for activation of the AvBD9 gene promoter (relative luciferase activity): compound alone, different concentrations, 24 h (FIG. 2, Panel A); for synergy in luciferase activity with butyrate: different concentrations in combination with 2 mM butyrate, 24 h (FIG. 3). The method, then: Culture and stimulation of a stable HTC/AvBD9-luc luciferase reporter cell line. A stable HTC/AvBD9-luc cell line was generated by cloning a 2.0-Kb AvBD9 gene promoter fragment into a lentiviral luciferase reporter vector, pGreenFire1-mCMV-Puro (System Biosciences, Palo Alto, CA) and then transfected into HTC cells as previously described (22). The stable cell line was maintained in RPMI 1640 containing 10% heat-inactivated FBS, 100 U/ml penicillin, 100 μg/mL streptomycin, and 0.5 μg/mL puromycin and subcultured every 3-4 days. To measure transcriptional activation of the AvBD9 gene promoter in response to different epigenetic compounds, cells were seeded at 4×10^4 cells/well in white 96-well tissue culture plates and stimulated in duplicate with different compounds individually or in combination for 24 h. An equal amount of a solvent was applied as a negative control. Luciferase activity was measured using STEADY-GLO® Luciferase Assay System (Promega, Madison, WI) on an L-Max II luminescence microplate reader (Molecular Devices, Sunnyvale, CA). Cell viabilities were assessed by adding alamarBlue Reagent (ThermoFisher, Waltham, MA) to cell culture 4 h before luciferase assay. Relative luciferase activity was determined for each well after normalization to the cell viability as previously described (22).
For orientation: In a reporter assay the amount or activity of a reporter protein is the signal.

A further test deals with AvBD9. Put plainly: RT-qPCR of AvBD9 in HD11 macrophages. The conditions noted are these: HD11 cells, 5 μM compound with 2 mM butyrate, 24 h (FIG. 6, Panel A). The method, then:
(§3) Culture and stimulation of macrophages. Two different chicken macrophage cell lines, HTC (24) and HD11 (25), were kindly provided by Dr. Narayan C. Rath and Dr. Hyun Lillehoj of USDA-ARS and maintained in RPMI 1640 containing 10% heat-inactivated FBS, 100 U/ml penicillin, and 100 μg/ml streptomycin and subcultured every 3-4 days. After overnight seeding at 1.5×10^6 cells/well in 6-well cell culture plates, cells were treated with different concentrations of each compound for 24 h or with the indicated concentration of each compound for various lengths of time for dose-response and time-course experiments, respectively. […]
(§4) Total RNA extraction and gene expression analysis. […] Gene expression was performed using reverse transcription-quantitative PCR (RT-qPCR) as previously described (27-29). […] The cDNA was then diluted 10-fold with RNase-free water prior to real-time PCR using QuantiTect SYBR® Green PCR Kit (Qiagen, Valencia, CA) in 10-μl reactions using primers specific for HDP, barrier function, and inflammatory cytokine genes as described (27, 29, 30). […] The fold changes in gene expression in the cells treated with individual compounds or in combinations were calculated relative to the cells treated with an equal volume of RPMI 1640 or DMSO using the ΔΔCt method (31).

The subject of a further test is AvBD1. Put plainly: RT-qPCR of AvBD1 in HD11 macrophages. Particulars: HD11 cells, 5 μM compound with 2 mM butyrate, 24 h (FIG. 6, Panel B). The method, then: as §3, §4
The test system of the next test is AvBD4. In words: RT-qPCR of AvBD4 in HD11 macrophages. Particulars: HD11 cells, 5 μM compound with 2 mM butyrate, 24 h (FIG. 6, Panel C). The method, then:
as §3, §4

The test system of another test is AvBD10. Put plainly: RT-qPCR of AvBD10 in HD11 macrophages. The conditions noted are these: HD11 cells, 5 μM compound with 2 mM butyrate, 24 h (FIG. 6, Panel D). The method, then:
as §3, §4

The test system of the next test is CLDN1. In words: RT-qPCR of CLDN1 (claudin 1) in HTC cells. The conditions noted are these: 24 h (FIG. 8, Panel F). As to the method: as §1, §2
For the next test, the system named is IL-1β. Put plainly: RT-qPCR of IL-1β in HTC cells with or without LPS. As to the method: as §1, §2
For a further test, the system named is IL-8. Put plainly: RT-qPCR of IL-8 in HTC cells with or without LPS. The method, then: as §1, §2

From US20250144056A1, “ANTIMICROBIAL HOST DEFENSE PEPTIDE-INDUCING COMPOSITIONS AND METHODS OF PRODUCTION AND USE THEREOF” (Board of Regents for the Oklahoma Agricultural and …, priority 2022, published 2025) come the findings set out here.

“Also recorded” adds a separate entry of the source.

On to `Nc1ncn([C@@H]2O[C@H](CO)[C@@H](O)[C@H]2O)c(=O)n1` [AZA, 5-azacytidine], for which the “induction of AvBD9 gene expression” value in the test on AvBD9 mRNA expression (5 μM compound alone) turned out to be 3 fold. For the same compound, in the test with AvBD9 mRNA expression, the “increase in AvBD9 expression, combination with mocetinostat” value is 1,925 fold.

`COc1cc2c(cc1OCCCN1CCCC1)N=C(N)C21CCC1` [A-366]: the “synergy in AvBD9 induction between HMTi and HDACi” value in the test on AvBD9 mRNA expression is on record as “marked synergy”.

`CCCc1cc(C)[nH]c(=O)c1CNC(=O)c1cc(-c2ccc(N3CCN(C(C)C)CC3)nc2)cc2c1cnn2C(C)C` [UNC1999]: in the test on AvBD9 gene promoter, the “activation of the AvBD9 gene promoter (relative luciferase activity)” value is on record as “concentration-dependent activation” and the “synergy in luciferase activity with butyrate” value was “marked dose-dependent increase in the synergy”. Further, the “additional increase in AvBD9 expression of the butyrate combination over compound alone” value in the test on AvBD9 mRNA expression (20 μM compound + 2 mM butyrate versus 20 μM compound alone) came to 14 fold. In addition, in the test on AvBD9 mRNA expression (20 μM compound alone, 24 h (FIG. 2, Panel B), peak), the “increase in AvBD9 mRNA expression” value is 259 fold. Moreover, the “induction of AvBD9 expression” value in the test with AvBD9 mRNA expression (20 μM compound alone, 24 h (FIG. 4, Panels A, B)) is listed as 324 fold. Also, the “increase in AvBD9 expression, combination with butyrate” value in the test on AvBD9 mRNA expression (20 μM compound in combination with 2 mM butyrate, 24 h (FIG. 4, Panels A, B)) was 4,470 fold. In the test with AvBD9 mRNA expression, the “synergy with butyrate in AvBD9 mRNA expression” value is recorded as “concentration-dependent increase”; the “synergy in AvBD9 induction between HMTi and HDACi” value is recorded as “marked synergy”. Moreover, in the test with AvBD9, the “synergy in AvBD9 induction with butyrate” value is reported as “drastic synergy”. For the same compound, the “AvBD1 induction, combination with butyrate” value in the test on AvBD1 is “synergistically induced, albeit at lower magnitudes”. Further, the “AvBD4 induction, combination with butyrate” value with AvBD4 is listed as “synergistically induced, albeit at lower magnitudes”. Moreover, the “AvBD10 induction, combination with butyrate” value in the test on AvBD10 is reported as “synergistically induced, albeit at lower magnitudes”. Besides, the “CLDN1 induction, combination with mocetinostat” value in the test with CLDN1 (5 μM UNC1999 + 2.5 μM mocetinostat) is “synergistically induced”. Also, the “CLDN1 induction, combination with butyrate” value in the test on CLDN1 (5 μM UNC1999 + 2 mM butyrate) is “synergistically induced”.

With `CCCC(=O)[O-].[Na+]` [butyrate, Sodium butyrate], in the test on AvBD9 mRNA expression (2 mM butyrate alone, 24 h (FIG. 4, Panel A)), the “induction of AvBD9 expression” value was determined as 27 fold. Besides, in the test with IL-1β (compound alone 24 h, then 10 ng/ml LPS 3 h (FIG. 8, Panel D)), the “effect on LPS-induced IL-1β expression” value is on record as “suppressed”. Further, the “activity in inducing gene expression of IL-1β” value with IL-1β (compound alone (2 mM butyrate or 5 μM BIX01294), without LPS (FIG. 8, Panel D)) was “no or weak activity”. For the same compound, the “effect on LPS-induced IL-8 expression” value in the test with IL-8 (compound alone 24 h, then 10 ng/ml LPS 3 h (FIG. 8, Panel E)) is on record as “potentiated”. Also, the “activity in inducing gene expression of IL-8” value in the test on IL-8 (compound alone (2 mM butyrate or 5 μM BIX01294), without LPS (FIG. 8, Panel E)) is recorded as “no or weak activity”.

As for `Cc1cc(Nc2ccc(NC(=O)c3ccc(Nc4ccnc5ccccc45)cc3)cc2)nc(N)n1` [SGI-1027], in the test with AvBD9 gene promoter, the “activation of the AvBD9 gene promoter (relative luciferase activity)” value is recorded as “weak activator” and the “synergy in luciferase activity with butyrate” value is recorded as “no synergy”. Moreover, the “induction of AvBD9 gene expression” value with AvBD9 mRNA expression (5 μM compound alone) is reported as 4 fold. In addition, in the test with AvBD9 mRNA expression, the “increase in AvBD9 expression, combination with mocetinostat” value is 747 fold and the “synergy with butyrate in AvBD9 mRNA expression” value is listed as “concentration-dependent increase; also recorded: synergize”. For the same compound, in the test on AvBD9 mRNA expression (10 µM compound + 2 mM butyrate versus 10 µM compound alone), the “additional increase in AvBD9 of the butyrate combination over compound alone” value worked out at 8 fold. Besides, in the test on AvBD9 mRNA expression (10 μM compound alone, 24 h (FIG. 2, Panel B)), the “induction of AvBD9 mRNA expression” value is reported as 51 fold. Moreover, in the test with AvBD9 mRNA expression (10 µM compound alone, 24 h (FIG. 4, Panel C)), the AvBD9 expression augmented was found to be 51 fold. Also, the “AvBD9 induction when combined with butyrate” value in the test on AvBD9 mRNA expression (10 µM compound combined with 2 mM butyrate, 24 h (FIG. 4, Panel C)) is given as 411 fold.

Turning to `Nc1ccccc1NC(=O)c1ccc(CNc2nccc(-c3cccnc3)n2)cc1` [mocetinostat], in the test on AvBD9 mRNA expression (2.5 μM mocetinostat alone), the “induction of AvBD9 gene expression” value is 152 fold.
